Assay results as given in patent US10227346B2, “Methyl- and trifluoromethyl-substituted pyrrolopyridine modulators of RORC2 and methods of use therof” (Pfizer Inc., priority 2014, dated 2019).

system: IL-17 production from human Th17 cells; experiment: IL-17 production from human Th17 cells; type: cell-based; settings: IL-17A in supernatant by ELISA after 6 days, human CD4+ T cells under Th17 differentiation;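 note: purified human CD4+ T cells activated with anti-CD3 plus anti-CD28 and a Th17-inducing cytokine cocktail, with compound at serial concentrations versus no compound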

IC50 [nM] | SMILES
12.2 | COc1cc(C#N)cc(C(=O)Nc2cnc3c(c([C@@H]4CCN(C(=O)C5CCCC5)[C@@H](C)C4)cn3C)c2C)c1 [Example 90, 3-cyano-N-(3-((2S,4R)-1-(cyclopentanecarbonyl)-2-methylpiperidin-4-yl)-1,4-dimethyl-1H-pyrrolo[2,3-b]pyridin-5-yl)-5-methoxybenzamide]
14.7 | COc1ccc(C(=O)Nc2cnc3c(c(C4[C@@H]5CC[C@H]4CN(C(=O)C4CCCC4)C5)cn3C)c2C)cc1C#N (stereo partly drawn) [Example 99, 3-cyano-N-(3-((1R,5S,8r)-3-(cyclopentanecarbonyl)-3-azabicyclo[3.2.1]octan-8-yl)-1,4-dimethyl-1H-pyrrolo[2,3-b]pyridin-5-yl)-4-methoxybenzamide]
32.1 | Cc1c(NC(=O)c2cccc(C#N)c2)cnc2c1c(C1CCN(C(=O)CC(C)C)CC1)cn2C [Example 109, 3-cyano-N-(1,4-dimethyl-3-(1-(3-methylbutanoyl)piperidin-4-yl)-1H-pyrrolo[2,3-b]pyridin-5-yl)benzamide]
24.7 | COc1ccc(C(=O)Nc2cnc3c(c(C4CCN(C(=O)C(C)C)CC4)cn3C)c2C)cc1C#N [Example 110, 3-cyano-N-(3-(1-isobutyrylpiperidin-4-yl)-1,4-dimethyl-1H-pyrrolo[2,3-b]pyridin-5-yl)-4-methoxybenzamide]
29.8 | Cc1c(NC(=O)c2cccc(C#N)c2)cnc2c1c([C@@H]1CCN(C(=O)C(C)C)[C@@H](C)C1)cn2C [Example 113, 3-cyano-N-(3-((2S,4R)-1-isobutyryl-2-methylpiperidin-4-yl)-1,4-dimethyl-1H-pyrrolo[2,3-b]pyridin-5-yl)benzamide]
